Experimental data: patent publication US3951952A, “Broad spectrum antibiotics” (Pfizer Inc., priority 1973, dated 1976)
≈ marks a conversion by molar mass, not a printed value. Where two headings read alike, the source gives them in different places.

Assays:
E. coli 51A002 = test: In vitro MIC, E. coli 51A002; type: cell-based; settings: Escherichia coli, Table I, nutrient broth
Description: (§1) The in vitro activity of the herein described compounds renders them useful for topical application in the form of ointments, creams and the like, or for sterilization purposes, e.g., sick-room utensils.
(§2) Table I compares the in vitro profile of 6-[D-2-phenyl-2-(amidinopropionamido)acetamido]penicillanic acid (PAP) with ampicillin (AMP) and carbenicillin (CAR).

Ps. aeruginosa 52A104 = test: In vitro MIC, Ps. aeruginosa 52A104; type: cell-based
Description: as §1, §2

Ps. aeruginosa 52A173 = test: In vitro MIC, Ps. aeruginosa 52A173; type: cell-based; settings: Pseudomonas aeruginosa, Table I, nutrient broth
Description: as §1, §2

P. vulgaris 57A059 = test: In vitro MIC, P. vulgaris 57A059; type: cell-based; settings: Proteus vulgaris
Description: as §1, §2

Ps. aeruginosa 52A490 = test: In vitro MIC, Ps. aeruginosa 52A490; type: cell-based
Description: as §1, §2

E. coli 51A266 [1] = test: In vitro MIC, E. coli 51A266; type: cell-based
Description: as §1, §2

Ser. marcescens 63A001 = test: In vitro MIC, Ser. marcescens 63A001; type: cell-based
Description: as §1, §2

Kleb. pneumoniae 53A015 = test: In vitro MIC, Kleb. pneumoniae 53A015; type: cell-based; settings: Klebsiella pneumoniae, Table I, nutrient broth
Description: as §1, §2

Kleb. pneumoniae 53A009 = test: In vitro MIC, Kleb. pneumoniae 53A009; type: cell-based
Description: as §1, §2

A. aerogenes 55A002 = test: In vitro MIC, A. aerogenes 55A002; type: cell-based; settings: Klebsiella aerogenes, Table I, nutrient broth
Description: as §1, §2

S. aureus 01A005 = test: In vitro MIC, S. aureus 01A005; type: cell-based; settings: Table III
Description: as §1, §2

E. coli 51A266 [2] = test: In vivo protection of mice against experimental E. coli 51A266 infection; settings: doses 0.5, 4 and 24 hours; for % Survivors: Table IV; for % Protection (% survivors): Table II
Procedure: Table II presents the in vivo comparison data for the three compounds contained in Table I aganst several experimental infections in mice.
The values (% survivors) are obtained under standard conditions known to those skilled in the art. For the E. coli organism, the test compound is administered to the infected mice by a multiple dosing regimen in which the first dose is given 0.5 hour after inoculation and is repeated 4 and 24 hours later.
Table IV presents in vivo comparison data for the four compounds in Table III against E. coli infections in mice.
The values, reported as % survivors, are obtained under standard conditions familiar to those skilled in the art. The test compound is administered to the infected mice by a multiple dosing regimen in which the first dose is given 0.5 hour after inoculation and is repeated 4 and 24 hours later.

A. aerogenes = test: In vitro MIC, A. aerogenes (strain not given); type: cell-based; settings: Table III
Description: as §1, §2

P. mirabilis 57C015 = test: In vitro MIC, P. mirabilis 57C015; type: cell-based; settings: Table III
Description: as §1, §2

S. aureus = test: In vitro MIC, S. aureus; type: cell-based; settings: Staphylococcus aureus, Table I, nutrient broth
Description: as §1, §2

gram-negative bacteria = settings: in words, U.S. Pat. No. 3,142,673, cited from earlier work
A. aerogenes 55A004 = test: In vitro MIC, A. aerogenes 55A004; type: cell-based; settings: Klebsiella aerogenes, Table I, nutrient broth
Description: as §1, §2

[3] = Pseudomonas aeruginosa, Table I, nutrient broth, read-out: MIC
[4] = Table I, P. vulgaris 57A059, nutrient broth, read-out: MIC
[5] = Escherichia coli, Table I, E. coli 51A266, nutrient broth, read-out: MIC
[6] = Serratia marcescens, Table I, nutrient broth, read-out: MIC
[7] = Klebsiella pneumoniae, Table I, nutrient broth, read-out: MIC

Structure (SMILES)	MIC (E. coli 51A002) [µg/mL]	MIC (Ps. aeruginosa 52A104; [3]) [µg/mL]	MIC (Ps. aeruginosa 52A173) [µg/mL]	MIC (Ps. aeruginosa 52A490; [3]) [µg/mL]	MIC (Ser. marcescens 63A001; [6]) [µg/mL]	MIC (Kleb. pneumoniae 53A015) [µg/mL]	MIC (Ps. aeruginosa 52A104; Table III) [µg/mL]	MIC (S. aureus 01A005) [µg/mL]	MIC (Ps. aeruginosa 52A490; Table III) [µg/mL]	% Survivors (E. coli 51A266 [2]; PO, 25 mg./kg.) [%]	% Survivors (E. coli 51A266 [2]; PO, 50 mg./kg.) [%]	% Survivors (E. coli 51A266 [2]; PO, 200 mg./kg.) [%]	% Survivors (E. coli 51A266 [2]; SC, 25 mg./kg.) [%]	% Survivors (E. coli 51A266 [2]; SC, 50 mg./kg.) [%]	% Survivors (E. coli 51A266 [2]; SC, 200 mg./kg.) [%]	MIC (E. coli 51A266 [1]; Table III, E. coli 51A266) [µg/mL]	MIC (A. aerogenes) [µg/mL]	MIC (Ser. marcescens 63A001; Table III) [µg/mL]	MIC (Kleb. pneumoniae 53A009; Table III) [µg/mL]	MIC (P. mirabilis 57C015) [µg/mL]	further results
CC1(C)S[C@@H]2[C@H](NC(=O)[C@H](NC(=O)CCC(=N)N)c3ccccc3)C(=O)N2[C@H]1C(=O)O [PAP, 6-[D-2-phenyl-2-(amidinopropionamido)acetamido]penicillanic acid]	200 (≈ 447 µM)	12.5 (≈ 27.9 µM)	0.78 (≈ 1.74 µM)	1.56 (≈ 3.49 µM)	3.12 (≈ 6.97 µM)	> 200	–	–	–	–	–	–	–	–	–	–	–	–	–	–	MIC (P. vulgaris 57A059; [4]): 1.56 µg/mL (≈ 3.49 µM); MIC (E. coli 51A266 [1]; [5]): 1.56 µg/mL (≈ 3.49 µM); MIC (Kleb. pneumoniae 53A009; [7]): 25 µg/mL (≈ 55.9 µM); MIC (A. aerogenes 55A002): 100 µg/mL (≈ 223 µM)
CC1(C)S[C@@H]2[C@H](NC(=O)C(NC(=O)CNC(=N)c3ccccc3)c3ccccc3)C(=O)N2[C@H]1C(=O)O (stereo partly drawn) [X = H]	–	–	–	–	–	–	25 (≈ 49.1 µM)	0.78 (≈ 1.53 µM)	12.5 (≈ 24.5 µM)	0	0	10	10	70	90	12.5 (≈ 24.5 µM)	25 (≈ 49.1 µM)	12.5 (≈ 24.5 µM)	100 (≈ 196 µM)	12.5 (≈ 24.5 µM)	–
CC1(C)S[C@@H]2[C@H](NC(=O)C(C(=O)O)c3ccccc3)C(=O)N2[C@H]1C(=O)O (stereo partly drawn) [CAR, carbenicillin]	200 (≈ 529 µM)	50 (≈ 132 µM)	75 (≈ 198 µM)	0.6 (≈ 1.59 µM)	25 (≈ 66.1 µM)	> 200	–	–	–	–	–	–	–	–	–	–	–	–	–	–	MIC (S. aureus): 1.56 µg/mL (≈ 4.12 µM); utility via oral administration (gram-negative bacteria; oral): limited utility via oral administration; efficacy against gram-negative bacteria (gram-negative bacteria; parenteral route): greater efficacy against gram-negative bacteria via the parenteral route of administration; MIC (A. aerogenes 55A004): 50 µg/mL (≈ 132 µM); MIC (P. vulgaris 57A059; 57A059): 12.5 µg/mL (≈ 33 µM); MIC (E. coli 51A266 [1]; [5]): 3.12 µg/mL (≈ 8.25 µM); MIC (Kleb. pneumoniae 53A009; [7]): 200 µg/mL (≈ 529 µM); MIC (A. aerogenes 55A002): 25 µg/mL (≈ 66.1 µM)
CC1(C)S[C@@H]2[C@H](NC(=O)C(NC(=O)CNC(=N)c3ccc(Cl)cc3)c3ccccc3)C(=O)N2[C@H]1C(=O)O (stereo partly drawn) [X = Cl]	–	–	–	–	–	–	25 (≈ 46 µM)	0.39 (≈ 0.717 µM)	12.5 (≈ 23 µM)	0	0	0	50	60	70	0.78 (≈ 1.43 µM)	3.12 (≈ 5.73 µM)	6.25 (≈ 11.5 µM)	12.5 (≈ 23 µM)	3.12 (≈ 5.73 µM)	–
CC1(C)S[C@@H]2[C@H](NC(=O)C(NC(=O)CNC(=N)c3ccc(F)cc3)c3ccccc3)C(=O)N2[C@H]1C(=O)O (stereo partly drawn) [X = F]	–	–	–	–	–	–	12.5 (≈ 23.7 µM)	0.39 (≈ 0.739 µM)	3.12 (≈ 5.91 µM)	10	0	10	50	70	90	1.56 (≈ 2.96 µM)	25 (≈ 47.4 µM)	6.25 (≈ 11.8 µM)	25 (≈ 47.4 µM)	3.12 (≈ 5.91 µM)	–
CC1(C)S[C@@H]2[C@H](NC(=O)C(NC(=O)CNC(=N)c3ccc(Br)cc3)c3ccccc3)C(=O)N2[C@H]1C(=O)O (stereo partly drawn) [X = Br]	–	–	–	–	–	–	25 (≈ 42.5 µM)	0.39 (≈ 0.663 µM)	6.25 (≈ 10.6 µM)	10	0	0	50	60	90	0.39 (≈ 0.663 µM)	3.12 (≈ 5.3 µM)	6.25 (≈ 10.6 µM)	12.5 (≈ 21.2 µM)	3.12 (≈ 5.3 µM)	–
CC1(C)S[C@@H]2[C@H](NC(=O)[C@H](N)c3ccccc3)C(=O)N2[C@H]1C(=O)O [AMP, ampicillin, reference compound]	200 (≈ 572 µM)	200 (≈ 572 µM)	38 (≈ 109 µM)	0.78 (≈ 2.23 µM)	200 (≈ 572 µM)	250 (≈ 715 µM)	–	–	–	–	–	–	–	–	–	–	–	–	–	–	MIC (S. aureus): 0.09 µg/mL (≈ 0.258 µM); MIC (A. aerogenes 55A004): 5 µg/mL (≈ 14.3 µM); MIC (P. vulgaris 57A059; [4]): 6 µg/mL (≈ 17.2 µM); % Protection (% survivors) (E. coli 51A266 [2]; PO, 50 mg./kg.): 80%; % Protection (% survivors) (E. coli 51A266 [2]; PO, 200 mg./kg.): 90%; % Protection (% survivors) (E. coli 51A266 [2]; SC, 50 mg./kg.): 80%; % Protection (% survivors) (E. coli 51A266 [2]; SC, 200 mg./kg.): 90%; MIC (E. coli 51A266 [1]; Escherichia coli, 51A266): 3.12 µg/mL (≈ 8.93 µM); MIC (Kleb. pneumoniae 53A009; [7]): 100 µg/mL (≈ 286 µM); MIC (A. aerogenes 55A002): 100 µg/mL (≈ 286 µM)
